What was measured:
[1] = test system: human adult and elderly PBMCs; test: TNF ELISA in human adult or elderly PBMCs, 96-well format; assay type: cell-based; details: stimulated for 24 hours
Description: FIGS. 1A-1D. Discovery of PVP-179 in a human PBMC high-throughput screen. FIG. 1A: A graphical overview depicting screen approach. From a high-throughput screen previously conducted, 310 molecules were identified to be activators of either THP-1 cells (monocyte cell line) or primary human adult peripheral blood mononuclear cells (PBMCs). These 310 molecules were assembled into a stimulation plate and then applied to the PBMCs of 4 elderly donors (cultured with 10% autologous plasma). […] Z scores were averaged across all four elderly donors. The Z score and chemical structure for PVP-179 are indicated. FIG. 1C: Human adult or elderly PBMCs (cultured with 10% autologous plasma) were stimulated with PVP-179 in a two-point concentration titration manner. […] N=4 donors. FIG. 1D: As in FIG. 1C, the supernatants were collected, and 14 cytokines were measured by multiplex assay. […] N=4 donors each.
The activity of PVP-179 was confirmed in a 96-well format in both human adult and elderly PBMCs.

[2] = test system: human monocytic THP-1 cell line; test: High throughput screen in THP-1 cells (NF-kB/IRF-inducing and/or leukocyte adherence-inducing activity); assay type: cell-based
Description: FIGS. 1A-1D. Discovery of PVP-179 in a human PBMC high-throughput screen. FIG. 1A: A graphical overview depicting screen approach. From a high-throughput screen previously conducted, 310 molecules were identified to be activators of either THP-1 cells (monocyte cell line) or primary human adult peripheral blood mononuclear cells (PBMCs). These 310 molecules were assembled into a stimulation plate and then applied to the PBMCs of 4 elderly donors (cultured with 10% autologous plasma). […] Z scores were averaged across all four elderly donors. The Z score and chemical structure for PVP-179 are indicated. FIG. 1C: Human adult or elderly PBMCs (cultured with 10% autologous plasma) were stimulated with PVP-179 in a two-point concentration titration manner. After 18 hours of incubation, supernatant was processed for ELISA-based measurement of TNF production. N=4 donors. FIG. 1D: As in FIG. 1C, the supernatants were collected, and 14 cytokines were measured by multiplex assay. […] N=4 donors each.
In a previous high throughput screen (HTS), a number of hit molecules were identified as potentially activating human leukocytes. […] A separate pilot screen of 9,000 of the molecules for TNF-inducing activity in adult human peripheral blood mononuclear cells (PBMCs) subsequently identified 133 molecules. […]

`CCCCn1c(/N=C/c2nc3ccccc3n2C)nc2ccccc21` [PVP-179] was tested, and the “production of TNF” value ([1]; adult PBMCs) was “concentration-dependent production of TNF”, the “production of TNF” value ([1]; elderly PBMCs) was “concentration-dependent production of TNF” and the “hit call in original THP-1 screen” value [2] was “positive hit”.
